The test system of this test is BDF1 mice, P388 leukemia ip, median survival T/C. In words: NCI In Vivo Anticancer Drug Screen. Data for tumor model P388 Leukemia (intraperitoneal) in B6D2F1 (BDF1) mice. As to conditions: endpoint: median survival time, higher = longer survival. Put shortly:
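T/C = treated-group survival ÷ vehicle-control survival; tumour transplanted into mice before dosing.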

The mark [1] stands for this setting: dose: 100.0 mg/kg/injection, schedule: Q01DX009 (ip), vehicle: saline with Tween-80.
The mark [2] stands for this setting: dose: 200.0 mg/kg/injection, schedule: Q01DX009 (ip), vehicle: saline with Tween-80.
[3] abbreviates: dose: 400.0 mg/kg/injection, schedule: Q01DX009 (ip), vehicle: saline with Tween-80.
Where [4] appears, read: dose: 100.0 mg/kg/injection, schedule: Q04DX003 (ip), vehicle: saline with Tween-80.
Where [5] appears, read: dose: 200.0 mg/kg/injection, schedule: Q04DX003 (ip), vehicle: saline with Tween-80.
Setting [6] is: dose: 400.0 mg/kg/injection, schedule: Q04DX003 (ip), vehicle: saline with Tween-80.

Where “and” joins values, the source holds several entries; their conditions need not be identical. Equal entries are not always repeated. Toxic doses and inconclusive results are not listed.

For `CCSC(=O)N1c2ccc(OC)cc2C=CC1C#N` (stereo not given), the T/C runs as follows: under setting [1], 164 % of control; under setting [2], 180 % of control; under setting [3], 190 % of control; (dose: 600.0 mg/kg/injection, schedule: Q04DX003 (ip), vehicle: saline with Tween-80) 150 % of control.

Turning to `Cc1cc(C)nc(NS(=O)(=O)c2ccc(NC(=O)C(Cl)(Cl)Cl)cc2)n1`, the T/C by setting is: (dose: 100.0 mg/kg/injection, schedule: Q01DX005 (ip), vehicle: saline with Tween-80) 93 % of control; (dose: 200.0 mg/kg/injection, schedule: Q01DX005 (ip), vehicle: saline with Tween-80) 88 % of control.

Regarding `CN1CCN(c2cc3c(cc2[N+](=O)[O-])no[n+]3[O-])CC1`, the T/C (dose: 15.0 mg/kg/injection, schedule: Q01DX009 (ip), vehicle: saline with Tween-80) was 123 % of control; the T/C (dose: 30.0 mg/kg/injection, schedule: Q01DX009 (ip), vehicle: saline with Tween-80) is 120 % of control; the T/C (dose: 60.0 mg/kg/injection, schedule: Q01DX009 (ip), vehicle: saline with Tween-80) was 103 % of control.

Turning to `CCOC(=O)c1cc(C(=O)OCC)c(=O)oc1OCC`, the T/C is 118 % of control (dose: 25.0 mg/kg/injection, schedule: Q01DX009 (ip), vehicle: saline); 104 % of control (dose: 50.0 mg/kg/injection, schedule: Q01DX009 (ip), vehicle: saline); 118 % of control (dose: 100.0 mg/kg/injection, schedule: Q01DX009 (ip), vehicle: saline).

Regarding `COc1ccc(CCN2C(=O)CSC2=S)cc1OC`, the T/C is 90 % of control (dose: 100.0 mg/kg/injection, schedule: Q01DX001 (ip), vehicle: Klucel (hydroxypropylcellulose) (HPC)); 100 % of control (dose: 200.0 mg/kg/injection, schedule: Q01DX001 (ip), vehicle: Klucel (hydroxypropylcellulose) (HPC)); 90 % of control (dose: 400.0 mg/kg/injection, schedule: Q01DX001 (ip), vehicle: Klucel (hydroxypropylcellulose) (HPC)).

For the compound `O=C(CNC(c1ccccc1)(c1ccccc1)c1ccccc1)OC(c1ccccc1)c1ccccc1`, the T/C reads like this: under setting [4], 104 % of control; under setting [5], 104 % of control; under setting [6], 100 % of control.

`O=C(OC1C=CCC1)c1ccc([N+](=O)[O-])cc1` (stereo not given): the T/C reads like this: (dose: 100.0 mg/kg/injection, schedule: Q04DX003 (ip), vehicle: Klucel (hydroxypropylcellulose) (HPC)) 100 % of control; (dose: 200.0 mg/kg/injection, schedule: Q04DX003 (ip), vehicle: Klucel (hydroxypropylcellulose) (HPC)) 100 % of control; (dose: 400.0 mg/kg/injection, schedule: Q04DX003 (ip), vehicle: Klucel (hydroxypropylcellulose) (HPC)) 100 % of control.

With `O=C1NC2(CCCCC2)C(=O)N1CCN(CCCl)CCCl`, the T/C is, setting by setting: (dose: 0.39 mg/kg/injection, schedule: Q01DX009 (ip), vehicle: saline) 196 % of control; (dose: 0.78 mg/kg/injection, schedule: Q01DX009 (ip), vehicle: saline) 189 % of control; (dose: 1.56 mg/kg/injection, schedule: Q01DX009 (ip), vehicle: saline) 222 % of control; (dose: 3.12 mg/kg/injection, schedule: Q01DX009 (ip), vehicle: saline) 291 % of control; (dose: 6.25 mg/kg/injection, schedule: Q01DX009 (ip), vehicle: saline) 291 % of control; (dose: 12.5 mg/kg/injection, schedule: Q01DX009 (ip), vehicle: saline) 120 % of control.

For the compound `O=C1NC(Cc2ccccc2)C(=O)NC1Cc1ccccc1` (stereo not given), the T/C (dose: 6.25 mg/kg/injection, schedule: Q01DX009 (ip), vehicle: saline with Tween-80) was 106 % of control; the T/C (dose: 12.5 mg/kg/injection, schedule: Q01DX009 (ip), vehicle: saline with Tween-80) was 101 % of control; the T/C (dose: 25.0 mg/kg/injection, schedule: Q01DX009 (ip), vehicle: saline with Tween-80) was 108 % of control.

With `Cc1c(Br)c(=O)n(-c2ccccc2)n1C`, the T/C by setting is: (dose: 12.5 mg/kg/injection, schedule: Q01DX009 (ip), vehicle: Klucel (hydroxypropylcellulose) (HPC)) 106 % of control; (dose: 25.0 mg/kg/injection, schedule: Q01DX009 (ip), vehicle: Klucel (hydroxypropylcellulose) (HPC)) 98 % of control; (dose: 50.0 mg/kg/injection, schedule: Q01DX009 (ip), vehicle: Klucel (hydroxypropylcellulose) (HPC)) 100 % of control and 106 % of control; (dose: 100.0 mg/kg/injection, schedule: Q01DX009 (ip), vehicle: Klucel (hydroxypropylcellulose) (HPC)) 106 % of control.

Turning to `O=C(O)c1cc2c3c(c1)CCCN3CCC2`, the T/C is, setting by setting: under setting [4], 90 % of control; under setting [5], 100 % of control; under setting [6], 90 % of control.

In the case of `N=C1N=C(C(F)(F)F)N=C1c1[nH]c(C(F)(F)F)nc1N`, the T/C runs as follows: (dose: 3.12 mg/kg/injection, schedule: Q01DX009 (ip), vehicle: water) 105 % of control; (dose: 6.25 mg/kg/injection, schedule: Q01DX009 (ip), vehicle: water) 105 % of control; (dose: 12.5 mg/kg/injection, schedule: Q01DX009 (ip), vehicle: water) 113 % of control; (dose: 25.0 mg/kg/injection, schedule: Q01DX009 (ip), vehicle: water) 103 % of control and 105 % of control; (dose: 25.0 mg/kg/injection, schedule: Q04DX003 (ip), vehicle: water) 100 % of control; (dose: 50.0 mg/kg/injection, schedule: Q01DX009 (ip), vehicle: water) 92 % of control. Besides, the T/C is 99 % of control (dose: 50.0 mg/kg/injection, schedule: Q04DX003 (ip), vehicle: water); 106 % of control (dose: 100.0 mg/kg/injection, schedule: Q01DX009 (ip), vehicle: water); 98 % of control (dose: 100.0 mg/kg/injection, schedule: Q04DX003 (ip), vehicle: water); 97 % of control (dose: 200.0 mg/kg/injection, schedule: Q01DX009 (ip), vehicle: water); 94 % of control (dose: 200.0 mg/kg/injection, schedule: Q04DX003 (ip), vehicle: water); 104 % of control (dose: 400.0 mg/kg/injection, schedule: Q01DX009 (ip), vehicle: water). For the same compound, the T/C (dose: 400.0 mg/kg/injection, schedule: Q04DX003 (ip), vehicle: water) was 109 % of control.

As to `CCC(CC)C(O)C(C)C(C)O` (stereo not given), the T/C under setting [4] was 100 % of control, the T/C under setting [5] was 100 % of control and the T/C under setting [6] was 100 % of control.

Turning to `O=C(Nc1ccc(F)cc1)C12CC3CC(CC(C3)C1)C2`, the T/C is 92 % of control (dose: 50.0 mg/kg/injection, schedule: Q01DX009 (ip), vehicle: saline with Tween-80); 92 % of control under setting [1]; 92 % of control under setting [2].

In the case of `COc1cc(OC)cc(C2=NNc3n[nH]c(=S)n3N2)c1`, the T/C is 100 % of control under setting [4], 95 % of control under setting [5] and 100 % of control under setting [6].

As for `CC1OC(O[C@H]2/C=C/C=C/C=C/C=C/C=C/C=C/C=C/[C@H](C)[C@@H](O)[C@@H](C)[C@H](C)OC(=O)C[C@H](O)C[C@H](O)CC[C@@H](O)[C@H](O)C[C@H](O)C[C@]3(O)C[C@H](O)[C@@H](C(=O)O)[C@H](C2)O3)C(O)C(N)C1O` (stereo not given in full), the T/C is 109 % of control (dose: 20.0 mg/kg/injection, schedule: Q04DX003 (ip), vehicle: clinical formulation) and 97 % of control (dose: 40.0 mg/kg/injection, schedule: Q04DX003 (ip), vehicle: clinical formulation).

`CC(=O)OCC(OC(C)=O)C(OC(C)=O)C(OC(C)=O)C(/C=N/NC(N)=S)=N/NC(N)=S` (stereo not given): the T/C runs as follows: (dose: 50.0 mg/kg/injection, schedule: Q01DX009 (ip), vehicle: other) 90 % of control; (dose: 100.0 mg/kg/injection, schedule: Q01DX009 (ip), vehicle: other) 100 % of control; (dose: 100.0 mg/kg/injection, schedule: Q04DX003 (ip), vehicle: other) 95 % of control; (dose: 200.0 mg/kg/injection, schedule: Q01DX009 (ip), vehicle: other) 100 % of control; (dose: 200.0 mg/kg/injection, schedule: Q04DX003 (ip), vehicle: other) 105 % of control; (dose: 400.0 mg/kg/injection, schedule: Q04DX003 (ip), vehicle: other) 120 % of control.

As to `OC(CCl)C(O)C(O)C(O)CCl` (stereo not given), the T/C was 100 % of control under setting [1], 113 % of control under setting [2] and 100 % of control under setting [3].

Values taken from PubChem BioAssay AID328 (DTP/NCI, 2004).
